Source: patent US20090018111A1, “Novel Antimicrobial Medicament” (priority 2004, published 2009)
Where two headings read alike, the source gives them in different places.

Experiments:
Assay in all cases: Sensitivity test (agar dilution)
S. marcescens X 100 = format: cell-based, Serratia marcescens; settings: Serratia marcescens, S. marcescens X 100
Experimental: (§1) The antibacterial activities were tested against various 18 bacteria (27 standard strains) which are representative bacteria caused clinically infectious disease (Staphylococcus aureus 3 strains, Staphylococcus epidermidis 1 strain, Micrococcus luteus 1 strain, Streptococcus pyogenes 1 strain, Enterococcus faecalis 1 strain, Enterococcus faecium 1 strain, Bacillus subtilis 1 strain, Escherichia coli 3 strains, Klebsiella pneumoniae 1 strain, Proteus mirabilis 1 strain, Proteus vulgaris 2 strains, Pseudomonas aeruginosa 3 strains, Serratia marcescens 2 strains, Enterobacter aerogenes 1 strain, Stenotrophomonas maltophilia 1 strain, Enterobacter cloacae 1 strain, Citrobacter freundii 1 strain, Moraxella catarrhalis 2 strains).
(§2) According to the standard method of Japan Chemotherapeutic Society (Chemotherapy, vol. […], p 76-79 (1981)) the test was carried out using the agar dilution method. After dissolving test samples in distilled water, agar medium containing the test samples was prepared in such a manner that the final concentration became twice serial dilution by pouring serially diluted combination drug solution or a single drug solution into agar medium. As agar medium was used Mueller Hinton Agar medium (MHA). Then, each strain was cultivated over night at 37° C. in an incubator and suspended in buffered saline solution with gelatin (BSG) in the concentration of about 10^6 CFU/ml. The suspension (about 5 μl) containing test strains was inoculated to the medium containing the test samples by Micro Planter.
(§3) When the sample is subjected to sensitivity test, this mixed solution was diluted by twice serial dilution method.
(§4) Furthermore, when the drug is solely used, each test sample was used as it is, and diluted by twice serial dilution method from the maximum concentration to the minimum concentration.
(§5) FIC index based on MIC value was calculated. […] Namely, when FIC index calculated by the following formula is equal or less than 1, the enhanced effect of the combination drug in said ratio is considered as positive. When FIC index is over 1, the enhanced effect of the combination drug in said ratio is considered as negative.
(§6) Formula of FIC index: FIC index=(MIC of Drug A in combination/MIC of Drug A alone)+(MIC of Drug B in combination/MIC of Drug B alone) N.C. in tables means being not calculated.

S. marcescens GN6473 = format: cell-based, Serratia marcescens; settings: Serratia marcescens, S. marcescens GN6473
Experimental: as §1, §2, §3, §4, §5, §6

S. epidermidis IAM1296 = format: cell-based, Staphylococcus epidermidis; settings: Staphylococcus epidermidis, S. epidermidis IAM1296
Experimental: as §1, §2, §3, §4, §5, §6

E. faecalis ATCC19433 = format: cell-based, Enterococcus faecalis; settings: Enterococcus faecalis, E. faecalis ATCC19433
Experimental: as §1, §2, §3, §4, §5, §6

E. aerogenes ATCC13048 = format: cell-based, Enterobacter aerogenes; settings: Klebsiella aerogenes, E. aerogenes ATCC13048
Experimental: as §1, §2, §3, §4, §5, §6

Str. pyogenes Cook = format: cell-based, Streptococcus pyogenes; settings: Streptococcus pyogenes, Str. pyogenes Cook
Experimental: as §1, §2, §3, §4, §5, §6

B. subtilis ATCC6633 = format: cell-based, Bacillus subtilis; settings: Bacillus subtilis, B. subtilis ATCC6633
Experimental: as §1, §2, §3, §4, §5, §6

P. vulgaris GN7919 = format: cell-based, Proteus vulgaris; settings: Proteus vulgaris, P. vulgaris GN7919
Experimental: as §1, §2, §3, §4, §5, §6

P. vurgalis OX-19 = format: cell-based, Proteus vulgaris; settings: Proteus vulgaris, P. vurgalis OX-19
Experimental: as §1, §2, §3, §4, §5, §6

M. catarrhalis ATCC8176 = format: cell-based, Moraxella catarrhalis; settings: Moraxella catarrhalis, M. catarrhalis ATCC8176
Experimental: as §1, §2, §3, §4, §5, §6

M. catarrhalis ATCC25238 = format: cell-based, Moraxella catarrhalis; settings: Moraxella catarrhalis, M. catarrhalis ATCC25238
Experimental: as §1, §2, §3, §4, §5, §6

M. luteus ATCC9341 = format: cell-based, Micrococcus luteus; settings: Micrococcus luteus, M. luteus ATCC9341
Experimental: as §1, §2, §3, §4, §5, §6

P. mirabiris GN2425 = format: cell-based, Proteus mirabilis; settings: Proteus mirabilis, P. mirabiris GN2425
Experimental: as §1, §2, §3, §4, §5, §6

[1] = X100, drug alone, read-out: MIC alone
[2] = GN6473, drug alone, read-out: MIC alone
[3] = IAM1296, drug alone, read-out: MIC alone
[4] = ATCC19433, drug alone, read-out: MIC alone
[5] = ATCC13048, drug alone, read-out: MIC alone
[6] = drug alone, read-out: MIC alone
[7] = ATCC6633, drug alone, read-out: MIC alone
[8] = GN7919, drug alone, read-out: MIC alone
[9] = OX19, drug alone, read-out: MIC alone
[10] = ATCC8176, drug alone, read-out: MIC alone
[11] = ATCC25238, drug alone, read-out: MIC alone
[12] = ATCC9341, drug alone, read-out: MIC alone
[13] = GN2425, drug alone, read-out: MIC alone

Compound | MIC (S. marcescens X 100; [1]) | MIC (S. marcescens GN6473; [2]) | MIC (S. epidermidis IAM1296; [3]) | MIC (E. faecalis ATCC19433; [4]) | MIC (E. aerogenes ATCC13048; [5]) | MIC (Str. pyogenes Cook; [6]) | MIC (B. subtilis ATCC6633; [7]) | MIC (P. vulgaris GN7919; [8]) | MIC (P. vurgalis OX-19; [9]) | MIC (M. catarrhalis ATCC8176; [10]) | MIC (M. catarrhalis ATCC25238; [11]) | MIC (M. luteus ATCC9341; [12]) | MIC (P. mirabiris GN2425; [13]) | other results
C[C@H]1[C@H](NC(=O)/C(=N\OC(C)(C)C(=O)O)c2csc(N)n2)C(=O)N1S(=O)(=O)O [AZT, aztreonam] | 0.063 µg/mL | 0.125 µg/mL | > 32 µg/mL | > 32 µg/mL | 0.063 µg/mL | 16 µg/mL | > 32 µg/mL | 0.125 µg/mL | 0.004 µg/mL | 0.25 µg/mL | 0.125 µg/mL | 16 µg/mL | 0.004 µg/mL | MIC (S. marcescens X 100; X100, Concomitant (AZT:SM = 1:1), read-out: MIC concomitant): 0.031 µg/mL; MIC (S. marcescens GN6473; GN6473, Concomitant (AZT:SM = 1:1), read-out: MIC concomitant): 0.25 µg/mL; MIC (S. epidermidis IAM1296; IAM1296, Concomitant (AZT:SM = 1:1), read-out: MIC concomitant): 0.031 µg/mL; MIC (E. faecalis ATCC19433; ATCC19433, Concomitant (AZT:SM = 1:1), read-out: MIC concomitant): 1 µg/mL; MIC (E. aerogenes ATCC13048; ATCC13048, Concomitant (AZT:SM = 1:1), read-out: MIC concomitant): 8 µg/mL; MIC (Str. pyogenes Cook; Concomitant (AZT:SM = 1:1), read-out: MIC concomitant): 0.004 µg/mL; MIC (B. subtilis ATCC6633; ATCC6633, Concomitant (AZT:SM = 1:1), read-out: MIC concomitant): ≤ 0.002 µg/mL; MIC (P. vulgaris GN7919; GN7919, Concomitant (AZT:SM = 1:1), read-out: MIC concomitant): 0.25 µg/mL; MIC (P. vurgalis OX-19; OX19, Concomitant (AZT:SM = 1:1), read-out: MIC concomitant): 0.004 µg/mL; MIC (M. catarrhalis ATCC8176; ATCC8176, Concomitant (AZT:SM = 1:1), read-out: MIC concomitant): ≤ 0.002 µg/mL; MIC (M. catarrhalis ATCC25238; ATCC25238, Concomitant (AZT:SM = 1:1), read-out: MIC concomitant): ≤ 0.002 µg/mL; MIC (M. luteus ATCC9341; ATCC9341, Concomitant (AZT:SM = 1:1), read-out: MIC concomitant): ≤ 0.002 µg/mL; MIC (P. mirabiris GN2425; GN2425, Concomitant (AZT:SM = 1:1), read-out: MIC concomitant): 0.004 µg/mL
C[C@@H](O)[C@H]1C(=O)N2C(C(=O)[O-])=C(SC3Cn4cnc[n+]4C3)[C@H](C)[C@H]12 (stereo partly shown) [BIPM, biapenem] | 0.063 µg/mL | 0.125 µg/mL | 1 µg/mL | 4 µg/mL | 0.125 µg/mL | 0.008 µg/mL | 0.031 µg/mL | 0.5 µg/mL | 0.25 µg/mL | 0.031 µg/mL | 0.016 µg/mL | 0.125 µg/mL | 0.25 µg/mL | MIC (S. marcescens X 100; X100, Concomitant (BIPM:SM = 1:1), read-out: MIC concomitant): 0.063 µg/mL; MIC (S. marcescens GN6473; GN6473, Concomitant (BIPM:SM = 1:1), read-out: MIC concomitant): 0.125 µg/mL; MIC (S. epidermidis IAM1296; IAM1296, Concomitant (BIPM:SM = 1:1), read-out: MIC concomitant): 0.031 µg/mL; MIC (E. faecalis ATCC19433; ATCC19433, Concomitant (BIPM:SM = 1:1), read-out: MIC concomitant): 1 µg/mL; MIC (E. aerogenes ATCC13048; ATCC13048, Concomitant (BIPM:SM = 1:1), read-out: MIC concomitant): 0.063 µg/mL; MIC (Str. pyogenes Cook; Concomitant (BIPM:SM = 1:1), read-out: MIC concomitant): 0.004 µg/mL; MIC (B. subtilis ATCC6633; ATCC6633, Concomitant (BIPM:SM = 1:1), read-out: MIC concomitant): ≤ 0.002 µg/mL; MIC (P. vulgaris GN7919; GN7919, Concomitant (BIPM:SM = 1:1), read-out: MIC concomitant): 0.25 µg/mL; MIC (P. vurgalis OX-19; OX19, Concomitant (BIPM:SM = 1:1), read-out: MIC concomitant): 0.031 µg/mL; MIC (M. catarrhalis ATCC8176; ATCC8176, Concomitant (BIPM:SM = 1:1), read-out: MIC concomitant): ≤ 0.002 µg/mL; MIC (M. catarrhalis ATCC25238; ATCC25238, Concomitant (BIPM:SM = 1:1), read-out: MIC concomitant): ≤ 0.002 µg/mL; MIC (M. luteus ATCC9341; ATCC9341, Concomitant (BIPM:SM = 1:1), read-out: MIC concomitant): 0.004 µg/mL; MIC (P. mirabiris GN2425; GN2425, Concomitant (BIPM:SM = 1:1), read-out: MIC concomitant): 0.125 µg/mL
